The results in this text go back to ChEMBL document CHEMBL1201862, “PubChem BioAssay data set” (2004).

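Compound exposure: 48 hours, 5 concentrations, 96-well plates. GI50: concentration for 50% inhibition of growth.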 Activity calls are given as the source filed them. No stated cut-off is given here; in the data, active = GI50 up to about 1.1 µM and inactive = higher.

Some test systems named below: DMS-114; DMS-273; HOP-18; KM-20L2; LXFL 529; M19-MEL; SNB-78; XF498; RXF 631.
Common to all, as to experiment: growth of human tumour cells (NCI), 48 h

Regarding `N#CC1(Cc2ccccc2Cl)c2ccccc2C=CN1C(=O)c1ccccc1` (stereo unspecified), the GI50 with DMS-114 was 96.8 µM (inactive); in the experiment with DMS-273, > 100 µM (inactive); with HOP-18, > 100 µM (inactive); in the experiment on KM-20L2, > 100 µM (inactive); in the experiment with LXFL 529 it was 43.1 µM (inactive); in the experiment on M19-MEL it was > 100 µM (inactive). Besides, the GI50 in the experiment on SNB-78 was > 100 µM (inactive); with XF498, 40.1 µM (inactive).

As to `N#Cc1ccccc1Sc1ccccc1N`, the GI50 in the experiment with DMS-114 was 49.1 µM (inactive); with DMS-273, > 100 µM (inactive); in the experiment with HOP-18 it was 27 µM (inactive); in the experiment on LXFL 529, 61.5 µM (inactive); in the experiment on M19-MEL, > 100 µM (inactive); with SNB-78 it was > 100 µM (inactive). The GI50 in the experiment with XF498 is 92 µM (inactive).

As to `FC(F)(F)C1(Cl)C(c2ccccc2)=C1c1ccccc1`, the GI50 with DMS-114 was 12.9 µM (inactive); with DMS-273 it was 14.3 µM (inactive); in the experiment with HOP-18, 20.7 µM (inactive); in the experiment with KM-20L2, 16.2 µM (inactive); with LXFL 529, 13.4 µM (inactive); in the experiment on M19-MEL it was 14.6 µM (inactive). Moreover, the results for the GI50 in the experiment on RXF 631, with SNB-78 and in the experiment on XF498 were 15.1 µM (inactive), 15.6 µM (inactive) and 13.6 µM (inactive), respectively.

`COC(=O)C1C(OCc2ccccc2)C2CCC1(OC)C=C2C` (stereo unspecified): the GI50 in the experiment with DMS-114 was > 57.1 µM (inactive); in the experiment with DMS-273, > 55.3 µM (inactive); in the experiment with HOP-18 it was > 100 µM (inactive); with KM-20L2 it was > 100 µM (inactive); in the experiment on LXFL 529, 59 µM (inactive); with M19-MEL it was > 58.3 µM (inactive). The GI50 in the experiment with SNB-78 is > 100 µM (inactive); in the experiment with XF498, > 45.1 µM (inactive).

As to `c1ccc2c(c1)cc(C1NCCc3nc[nH]c31)c1ccccc12` (stereo unspecified), the GI50 was > 47.2 µM (inactive) in the experiment with DMS-114; 29.7 µM (inactive) with DMS-273; > 62.1 µM (inactive) in the experiment with HOP-18; 56.5 µM (inactive) with KM-20L2; 41.3 µM (inactive) with LXFL 529; 29.6 µM (inactive) in the experiment with M19-MEL. In addition, the GI50 is 50.8 µM (inactive) in the experiment with RXF 631, > 86.5 µM (inactive) with SNB-78 and 22.5 µM (inactive) in the experiment on XF498.

Take `[N-]=[N+]=NC1(c2ccccc2)C(=O)C(Cl)=C(c2ccccc2)N(c2ccccc2)C1=O` (stereo unspecified): the GI50 in the experiment with DMS-114 was 46.2 µM (inactive); in the experiment on DMS-273, > 100 µM (inactive); with HOP-18, > 100 µM (inactive); in the experiment on KM-20L2 it was > 100 µM (inactive); in the experiment with LXFL 529, 91.6 µM (inactive); in the experiment on M19-MEL, > 100 µM (inactive). For the same molecule, the GI50 in the experiment on SNB-78 was 31.4 µM (inactive).

Consider `O=C(O)C(CS)NCc1c2ccccc2[n+]([O-])c2ccccc12` (stereo unspecified), for which the GI50 is 22.8 µM (inactive) in the experiment with DMS-114; 31.6 µM (inactive) with DMS-273; 97.1 µM (inactive) in the experiment on HOP-18; 37.2 µM (inactive) in the experiment on KM-20L2; 23.8 µM (inactive) in the experiment with LXFL 529; 33.6 µM (inactive) in the experiment with M19-MEL. Further, the GI50 in the experiment on RXF 631 is 37.6 µM (inactive); in the experiment with SNB-78 it was 38 µM (inactive).

`CC(C)(C)NNC(=O)CCn1[nH]c(=O)c(Cl)c(Cl)c1=O`: the GI50 with DMS-114, in the experiment on DMS-273, in the experiment on HOP-18, with KM-20L2, in the experiment on LXFL 529 and in the experiment on M19-MEL was > 100 µM (inactive) in each case. Further, the GI50 in the experiment with RXF 631 and with XF498 was > 100 µM (inactive) each time.

As to `Cc1nc(=O)[nH]c2[nH][nH]c(=O)c12`, the GI50 in the experiment with DMS-114, in the experiment with HOP-18, with LXFL 529 and with M19-MEL was > 100 µM (inactive) each time.

For the molecule `COc1cc2c(cc1OC)-c1c3cc(O)ccc3nn[n+]1CC2`, the GI50 in the experiment with DMS-114, with DMS-273, in the experiment with HOP-18, in the experiment on KM-20L2, in the experiment with LXFL 529 and in the experiment on M19-MEL was > 100 µM (inactive) in each case. The GI50 with SNB-78 and in the experiment on XF498 was > 100 µM (inactive) in each case.

As to `CCOC(=O)/C(=C/c1ccc(OC)cc1)N(CC)CC`, the GI50 with DMS-114 is > 100 µM (inactive); in the experiment on DMS-273, > 100 µM (inactive); with KM-20L2 it was > 100 µM (inactive); in the experiment on LXFL 529, > 100 µM (inactive); in the experiment with M19-MEL, > 100 µM (inactive); with SNB-78 it was 34.5 µM (inactive). Further, in the experiment on XF498, the GI50 was > 100 µM (inactive).

Regarding `Cc1ccc(S(=O)(=O)c2ccccn2)cc1`, the GI50 with DMS-114, in the experiment on DMS-273, in the experiment with HOP-18, in the experiment on KM-20L2, in the experiment with LXFL 529 and in the experiment with M19-MEL was > 100 µM (inactive) each time. The GI50 with RXF 631, in the experiment on SNB-78 and in the experiment on XF498 was > 100 µM (inactive) each time.

For the molecule `O=C1NC2(CCCC2)C(=O)C12CCCC2`, the GI50 in the experiment on DMS-273, with HOP-18, in the experiment on LXFL 529, with M19-MEL, in the experiment on RXF 631 and in the experiment on SNB-78 was > 100 µM (inactive) throughout. Further, the GI50 in the experiment on XF498 is > 100 µM (inactive).

Turning to `C#CCOCn1cnc2ncnc(N)c21`, the GI50 with DMS-114, in the experiment with DMS-273, with HOP-18, in the experiment on M19-MEL, in the experiment on SNB-78 and in the experiment on XF498 was > 100 µM (inactive) throughout.

With `CC(=O)N(C)OC(=O)CC(=O)c1ccccc1`, the GI50 in the experiment with DMS-114, in the experiment with DMS-273, in the experiment with KM-20L2, in the experiment with LXFL 529, in the experiment with M19-MEL and in the experiment with RXF 631 was > 100 µM (inactive) throughout. The GI50 with SNB-78 and with XF498 was > 100 µM (inactive) in each case.

Take `CSc1ccc(/C=C2\CNC/C(=C\c3ccc(SC)cc3)C2=O)cc1`: the GI50 in the experiment on DMS-114 is 34 µM (inactive); with LXFL 529, 21.2 µM (inactive); in the experiment on RXF 631 it was 22.6 µM (inactive); with XF498, 8 µM (inactive).

For `CC(=O)OC1(C#N)CC2OC1C1N=NN(C(=O)OC(C)(C)C)C21` (stereo unspecified), the GI50 with DMS-114 is 13.2 µM (inactive); with DMS-273 it was 36.5 µM (inactive); in the experiment on HOP-18 it was > 100 µM (inactive); with KM-20L2, > 100 µM (inactive); in the experiment on LXFL 529 it was 32.3 µM (inactive); with M19-MEL it was > 100 µM (inactive). Moreover, the GI50 was 21.1 µM (inactive) in the experiment on SNB-78 and 89.7 µM (inactive) in the experiment on XF498.

As to `N[C@H](C(=O)O)[C@H](Cl)CC(=O)O`, the GI50 with DMS-114, in the experiment with DMS-273, in the experiment on HOP-18, in the experiment with KM-20L2, in the experiment on LXFL 529 and in the experiment with M19-MEL was > 100 µM (inactive) in each case. Also, the GI50 in the experiment with SNB-78 and in the experiment with XF498 was > 100 µM (inactive) throughout.

`CC1=C2CCCC2=C/C(=N/Nc2ccc([N+](=O)[O-])cc2[N+](=O)[O-])CC1`: the GI50 in the experiment on DMS-114, in the experiment on DMS-273, with HOP-18, in the experiment on KM-20L2, with LXFL 529 and in the experiment on M19-MEL was > 100 µM (inactive) in each case. The GI50 with SNB-78 and in the experiment on XF498 was > 100 µM (inactive) in each case.

Turning to `Cc1cc(N(CC(C)Br)CC(C)Br)ccc1/N=N/c1ccccc1C(=O)O` (stereo unspecified), the GI50 with DMS-114 is 1.22 µM (inactive); in the experiment on DMS-273, 4.59 µM (inactive); in the experiment with HOP-18, 2.64 µM (inactive); in the experiment with KM-20L2 it was 8.75 µM (inactive); in the experiment with M19-MEL, 12.2 µM (inactive); in the experiment with SNB-78, 11.1 µM (inactive). Moreover, the GI50 in the experiment with XF498 is 1.95 µM (inactive).

As for `COC(=O)N/N=C(\C)C(CN(C)C)C(c1ccccc1)c1c(O)c2ccccc2oc1=O` (stereo unspecified), the GI50 in the experiment on DMS-114, in the experiment on DMS-273, in the experiment on KM-20L2, in the experiment on LXFL 529, in the experiment with M19-MEL and in the experiment on SNB-78 was > 100 µM (inactive) throughout. The GI50 in the experiment on XF498 is > 100 µM (inactive).

In the case of `O=C1C=CC(=O)c2c1ccc1c3ccccc3n(-c3ccccc3)c21`, the GI50 with DMS-114 is 16.9 µM (inactive); with DMS-273 it was 15.2 µM (inactive); with HOP-18 it was 7.82 µM (inactive); with KM-20L2, 17 µM (inactive); in the experiment on LXFL 529, 3.53 µM (inactive); in the experiment with M19-MEL it was 16.5 µM (inactive). The GI50 in the experiment on RXF 631 is 25.4 µM (inactive); in the experiment on SNB-78, 20.3 µM (inactive); in the experiment on XF498, 0.535 µM (active).

As to `O=C(CCc1n[nH]c(=S)o1)Nc1ccc(Cl)cc1Cl`, the GI50 in the experiment on DMS-114 is > 100 µM (inactive); in the experiment with DMS-273, 30.8 µM (inactive); with HOP-18, > 100 µM (inactive); in the experiment on KM-20L2, > 100 µM (inactive); with LXFL 529, > 100 µM (inactive); in the experiment on M19-MEL, > 100 µM (inactive). Also, the GI50 with RXF 631 and in the experiment on SNB-78 was > 100 µM (inactive) each time.

Regarding `CN(C(=O)/C=C/c1ccccc1)C1C2CN3CCC(O2)C13` (stereo unspecified), the GI50 with DMS-114, with DMS-273, in the experiment on HOP-18, in the experiment on KM-20L2, in the experiment on LXFL 529 and with SNB-78 was > 100 µM (inactive) each time. In addition, in the experiment on XF498, the GI50 was > 100 µM (inactive).

For `COc1cc2c(c(OC)c1OC)-c1ccc(SC)c(=O)cc1[C@@H](NC(=O)c1ccc(OC(C)=O)cc1)CC2`, the GI50 with DMS-273 was 0.01 µM (active); in the experiment with KM-20L2, 0.0189 µM (active); in the experiment with LXFL 529 it was 0.0158 µM (active); with M19-MEL, 0.0265 µM (active); in the experiment with RXF 631, 0.0275 µM (active); in the experiment with SNB-78, 0.00451 µM (active). Moreover, the GI50 in the experiment with XF498 is 0.0169 µM (active).

On to `CC(C)(C)c1cc(C=C(C#N)C#N)cc(C(C)(C)C)c1O` [TYRPHOSTIN A9], for which the GI50 in the experiment with DMS-114 is 0.179 µM (active); in the experiment on DMS-273, 0.736 µM (active); with KM-20L2, 4.61 µM (inactive); with LXFL 529, 0.518 µM (active); with XF498 it was 0.776 µM (active).
